Reference: patent US20210395327A1, “Growth Hormone-Releasing Hormone Antagonists and Uses Thereof” (United States Government As Represented By The Department …, priority 2019, published 2021)
“Also recorded” adds a separate entry of the source. Non-standard residues stand in square brackets, D forms with d. Residues, ends and D or L forms follow the SMILES beside them. *: point of attachment. Phe(F5) = N[C@@H](Cc1c(F)c(F)c(F)c(F)c1F)C(=O)O; hArg = N=C(N)NCCCC[C@H](N)C(=O)O; 12Ado = NCCCCCCCCCCCC(=O)O; Nle = CCCC[C@H](N)C(=O)O; Orn = NCCC[C@H](N)C(=O)O; Abu = CC[C@H](N)C(=O)O; PhAc = O=C(Cc1ccccc1)*

Columns and labels:
[1] = test system: PC3 prostatic cancer cells; assay: In vitro cell viability, PC3; format: cell-based, human; conditions: antagonist 5 μM for 72 h, cell proliferation assay; MIA602 = 1
Description: The inhibitory effects of the various synthesized GHRH antagonists were tested in cell proliferation assays in various human cancer cell lines including stomach cancer (KATOIII, N87), colon cancer (HT-29), urothelial cancer (J82, RT4), pancreatic cancer (PANC-1, CFPAC-1), prostatic cancer (PC3), breast cancer (MX-1, HCC1806), ovarian cancer (SK-OV-3, OVCAR-3) and lung cancer (HCC827, H460).
Cell culture. Human cancer cell lines including pancreatic (PANC-1 and CFPAC-1), lung (HCC827 and H460), stomach (NCI-N87 and KATOIII), urothelial (J82, RT4), prostatic (PC3), breast (MX-1 and HCC 1806), colorectal (HT-29), and ovarian (SK-OV-3 and OVCAR-3) were obtained from the American Type Culture Collection (ATCC) and cultured at 37° C. in a humidified 95% air/5% CO2 atmosphere in the medium recommended by ATCC.
In vitro cell viability. Cell viability was analyzed as follows: cancer cells including pancreatic (PANC-1 and CFPAC-1), lung (HCC827 and H460), stomach (NCI-N87 and KATOIII), urothelial (J82, RT4), prostatic (PC3) and breast (MX-1 and HCC 1806), colorectal (HT-29) and ovarian (SK-OV-3 and OVCAR-3) were grown on 96 well plates to ˜60% confluence, the cells were starved for 24 h in culture medium containing 0.5% FBS. Cells were then treated with GHRH antagonists MIA602 AVR compounds at concentrations of 1, 2.5 or 5 μM, or vehicle (0.1% DMSO) in quintuplicates for 72 hours. The medium was replaced every 48 hours. Cell viability was measured using CellTiter 96 aqueous one solution kit (Promega). Inhibitory effects of tested AVR compounds in comparison to that of MIA602 are presented as inhibitory potency.
Inhibitory effects of selected AVR compounds in comparison to that of MIA602 are presented as inhibitory potency (e.g., percentage of inhibition). […] The cell lines tested including lung cancer HCC827 (FIG. 2A), pancreatic cancer CFPAC-1 (FIG. 2B), stomach cancer N87 (FIG. 2C), colon cancer HT-29 (FIG. 2D), breast cancers MX-1 and HCC1806 (FIGS. 2 E, F). […]

[2] = test system: gene expression in mouse lung tissue; assay: RNAseq and pathway analysis of lung tissue of bleomycin-treated mice; format: in vivo, C57Bl/6J mice; conditions: bleomycin 28 days, MIA-602 vs vehicle
Description: RNA isolation. RNA was extracted from fixed lung tissue in paraffin blocks using a Quick-RNA™ FFPE Kit (R1008, Zymo Research, Irvine, Calif.) following the manufacturer's protocol (Patel P, Selvarajah S, Guerard K, Bartlett J, Lapointe J, Berman D, Okello J, Park P (2017). PLoS ONE 12:e0179732). Samples were deparaffinized, digested with proteinase K and decrosslinked at 65° C. for 15 minutes. RNA lysis buffer was added and mixed with ethanol. The mixtures were transferred to spin columns to isolate total RNA.
RNAseq and Pathway analyses. At least 10 ng of total RNA was used as input for the KAPA RNA HyperPrep Kit with RiboErase (HMR) to create ribosomal RNA-depleted sequencing libraries, including sample indexing, to allow for multiplexing. Cluster generation and sequencing was done on the Illumina cBOT and HiSeq 3000 using reagents provided by Illumina, finally generating >32 million single-end 100 base reads per sample.
De-multiplexed FASTQ files were created with Illumina supplied scripts in BCL2FASTQ software (v2.17). […]
Gene counts were normalized using trimmed mean of M-values (TMM) method. Differential expression between groups was calculated with the exact test implemented in edgeR (Robinson M, McCarthy D, Smyth G (2010). Bioinformatics 26:139-140). […]

[3] = test system: mouse lung fibroblasts (Mlg 2908); assay: Annexin V-propidium iodide assay of lung fibroblasts; format: cell-based; conditions: 24 hours, annexin-V/PI
Description: Lung fibroblasts. Newborn mouse lung fibroblasts (Mlg 2908) were obtained from the American Type Culture Collection, Manassas, Va. and cultured in Eagle's minimal essential medium. Cells were grown in 6-well plates before incubation with 1 or 5 μM MIA-602 or vehicle, RNA isolation, and oxygen consumption measurements.
Annexin V-propidium iodide assay. Apoptosis and necrosis were assessed with annexin-V/propidium iodide staining (Annexin V: FITC Assay Kit, Bio Rad, Hercules, Calif. 94547) of lung fibroblasts incubated in 0, 1 or 5 μM MIA-602 for 24 hours (Rieger A, Nelson K, Konowalchuk J, Barreda D. (2011). J Visualized Experiments 50:e2597). Culture medium and trypsinized cells were collected and centrifuged at 400×g for 5 minutes. The pellet was resuspended in 100 μL annexin-V/propidium iodide. The suspension was incubated at 37° C. for 20 minutes, then washed with PBS and resuspended in 500 μL PBS and fluorescence quantified by Beckman Coulter Life Sciences CytoFLEX benchtop flow cytometer (Beckman Coulter, Inc., Brea, Calif.).

[4] = test system: cellular levels of oxidant stress; conditions: Barbutis and Schally 2008; cited from earlier work

For `CCCC[C@H](NC(=O)[C@@H](NC(=O)[C@H](CC(=O)O)NC(=O)[C@H](CCC(N)=O)NC(=O)[C@H](CC(C)C)NC(=O)[C@H](CC(C)C)NC(=O)[C@H](CCCN)NC(=O)[C@H](Cc1c[nH]cn1)NC(=O)[C@H](C)NC(=O)[C@H](CO)NC(=O)[C@H](CC(C)C)NC(=O)[C@H](CCC(N)=O)NC(=O)[C@H](CC)NC(=O)[C@H](CC(C)C)NC(=O)[C@@H](NC(=O)[C@H](CCCN)NC(=O)[C@H](Cc1c[nH]cn1)NC(=O)[C@H](Cc1ccc(OC)cc1)NC(=O)[C@H](CCCCNC(=N)N)NC(=O)[C@H](C)NC(=O)[C@@H](NC(=O)[C@H](Cc1c(F)c(F)c(F)c(F)c1F)NC(=O)[C@@H](NC(=O)[C@H](C)NC(=O)[C@H](CC(=O)O)NC(=O)[C@@H](CCCNC(=N)N)NC(=O)[C@H](Cc1ccc(O)cc1)NC(=O)CCCCCCCCCCCNC(=O)Cc1ccccc1)[C@@H](C)CC)[C@@H](C)O)C(C)C)[C@@H](C)CC)C(=O)N[C@H](CCCNC(=N)N)C(=O)N[C@@H](CCCCNC(=N)N)C(N)=O` [MIA-602, PhAC-Ada, Tyr D-Arg, Asp, Ala, Ile, 5FPhe, Thr, Ala, Har, Tyr(Me), His, Orn, Val, Leu, Abu, Gin, Leu, Ser, Ala, His, Om, Leu, Leu, Gin, Asp, Ile; Nle, D-Arg, Har NH2, reference compound] ({PhAc-12Ado}-Y[dR]DAI[Phe(F5)]TA[hArg]Y(Me)H[Orn]VL[Abu]QLSAH[Orn]LLQDI[Nle][dR][hArg]-NH2), the “relative inhibitory potency in comparison to MIA-602, Prostatic PC3” value [1] was 1, the “lung gene expression, RNA-seq pathway analysis (in words)” value [2] was “suppression of the adaptive immune response, T cell differentiation and activation and cytokine production; also recorded: downregulation of T cell receptor complex genes (CD3E, CD3G, CD4, and CD8A)” and the cytolytic cell death ([3]; 1 μM) was 9.3±1.1%. For the same compound, the cytolytic cell death ([3]; 5 μM) was 34.9±2.5% and the “cellular levels of oxidant stress (in words)” value [4] was “decreased”.
